Reference: US20060211761A1, “Hmg-coa-reductase inhibitors” (priority 2002, published 2006)
Counter-ions that a name gives are not always drawn.

target: HMG CoA Reductase; assay: HMG CoA reductase inhibition, similar experiments with phenylhydroxy compounds of U.S. Pat. No. 5,385,929, Table 2; format: biochemical; details: compared to atorvastatin
Description: (§1) Res. Comm., 50, 859 (1973).
(§2) HMG-CoA reductase is regarded as a rate-limiting enzyme in cholesterol biosynthesis, catalyzing the following reaction: [^14C]HMG-CoA+2NADPH+2H+[^14C]mevanolate+CoA+2NADP+microsomes, utilizing 2.5 mM [^14C] HMG-CoA as a substrate.
(§3) The reaction was carried out in presence of 100 mM KH2PO4, 20 mM G-6-P, 2.5 mM NADPH, 10 mM EDTA, 5 mM DTT and […], at 37° C. for 15 minutes and quantitating [^14C] mevalonate as an end product.

SMILES | IC50 [nM]
CC(C)c1c(C(=O)Nc2cccc(O)c2)c(-c2ccccc2)c(-c2ccc(F)cc2)n1CCC(O)CC(O)CC(=O)O (stereo not drawn) [Meta-hydroxyatorvastatin] | 0.199
CC(C)c1c(C(=O)Nc2ccccc2O)c(-c2ccccc2)c(-c2ccc(F)cc2)n1CC[C@@H](O)C[C@@H](O)CC(=O)O [Ortho-hydroxyatorvastatin] | 0.264
CC(C)c1c(C(=O)Nc2ccc(O)cc2)c(-c2ccccc2)c(-c2ccc(F)cc2)n1CC[C@@H](O)C[C@@H](O)CC(=O)O [Para-hydroxyatorvastatin] | 0.476

target: HMG-CoA reductase; assay: in-vitro HMG-CoA reductase enzyme assay ([14C]mevalonate formation, liver microsomes), Table 1; format: biochemical; details: preincubated 37° C. 30 minutes, [14C] HMG-CoA substrate
Description: as §1, §2, §3

SMILES | IC50 [nM]
COc1cc(NC(=O)c2c(-c3ccccc3)c(-c3ccc(F)cc3)n(CC[C@@H](O)C[C@@H](O)CC(=O)O)c2C(C)C)cc(OC)c1 [Example 1, 7-[3-(3,5-dimethoxyphenylcarbamoyl)-5-(4-fluorophenyl)-2-(1-methylethyl)4-phenyl-pyrrol-1-yl]-3R,5R-dihydroxy-heptanoic acid calcium salt] | 0.022
COc1ccc(NC(=O)c2c(-c3ccccc3)c(-c3ccc(F)cc3)n(CC[C@@H](O)C[C@@H](O)CC(=O)O)c2C2CC2)c(OC)c1 [S.No. 3, 7-[3-(2,4-dimethoxyphenylcarbamoyl)-5-(4-fluorophenyl)-2-(cyclopropyl)-4-phenyl-pyrrol-1-yl]-3R,5R-dihydroxy-heptanoic acid calcium salt] | 0.00948
COc1ccc(NC(=O)c2c(-c3ccccc3)c(-c3ccccc3)n(CC[C@@H](O)C[C@@H](O)CC(=O)O)c2C(C)C)c(OC)c1 [S.No. 5, 7-[3-(2.4-dimethoxyphenylcarbamoyl)-4.5-diphenyl-2-(1-methylethyl-pyrrol-1-yl]-3R,5R-dihydroxy-heptanoic acid calcium salt] | 0.0563
